Test results reported in the supplement of paper PMC10307832.

How the values were obtained:
Test in all cases: relative viability (nuclei count vs DMSO), 5 days (fraction); higher = more cells survive
[1] = compound: Cc1ccc(-n2nc(C(C)(C)C)cc2NC(=O)Nc2ccc(OCCN3CCOCC3)c3ccccc23)cc1 [Doramapimod] + COc1cc2c(Oc3ccc(NC(=O)C4(C(=O)Nc5ccc(F)cc5)CC4)cc3F)ccnc2cc1OCCCN1CCOCC1 [Foretinib] (partner 0.25 µM)
Outline: (§1)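 Lung cancer cell lines, seeded in 1536-well plates, were treated the following day by pin tool with a single drug or with five library-drug doses (not always all listed) in √10 steps on top of a fixed anchor-drug dose. Cells were fixed and nuclei stained in one step after 5 days, and nuclei were counted. Relative viability is the nuclei count for treated wells divided by that for vehicle wells, reported as medians of duplicate plates.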

[2] = compound: Cc1ccc(-n2nc(C(C)(C)C)cc2NC(=O)Nc2ccc(OCCN3CCOCC3)c3ccccc23)cc1 [Doramapimod] + Nc1ncn([C@H]2C[C@H](O)[C@@H](CO)O2)c(=O)n1 [Decitabine] (partner 2 µM)
Outline: as §1

[3] = compound: Cn1c(Nc2ccc(C(F)(F)F)cc2)nc2cc(Oc3ccnc(-c4ncc(C(F)(F)F)[nH]4)c3)ccc21 [RAF265] + C[C@]1(O)C[C@@H](c2nc(-c3ccc4ccc(-c5ccccc5)nc4c3)c3c(N)nccn32)C1 [Linsitinib] (partner 1 µM)
Outline: as §1

[4] = compound: Cn1c(Nc2ccc(C(F)(F)F)cc2)nc2cc(Oc3ccnc(-c4ncc(C(F)(F)F)[nH]4)c3)ccc21 [RAF265] + N=C(N)NC(=N)NCCc1ccccc1 [Phenformin] (partner 250 µM)
Outline: as §1

UMC-11
relative viability ([1]; first compound 0.02 µM): 0.954
relative viability ([1]; first compound 0.06325 µM): 0.936
relative viability ([1]; first compound 0.2 µM): 0.932
relative viability ([1]; first compound 0.6325 µM): 0.988
relative viability ([1]; first compound 2 µM): 0.982
relative viability ([2]; first compound 0.02 µM): 0.65
relative viability ([2]; first compound 0.06325 µM): 0.584
relative viability ([2]; first compound 0.2 µM): 0.646
relative viability ([2]; first compound 0.6325 µM): 0.723
relative viability ([2]; first compound 2 µM): 0.419
relative viability ([3]; first compound 0.01 µM): 1
relative viability ([3]; first compound 0.03162 µM): 0.993
relative viability ([3]; first compound 0.1 µM): 0.953
relative viability ([3]; first compound 0.3162 µM): 0.986
relative viability ([3]; first compound 1 µM): 0.973
relative viability ([4]; first compound 0.01 µM): 0.354
relative viability ([4]; first compound 0.03162 µM): 0.332
relative viability ([4]; first compound 0.1 µM): 0.32
relative viability ([4]; first compound 0.3162 µM): 0.318
relative viability ([4]; first compound 1 µM): 0.259
